The test system of this assay is NF-κB activation. The experiment in a line: NF-κB activation reporter assay (pNFκB-Luc luciferase) under TNF-α stimulation. The conditions noted are these: HepG2 or HeLa cells, TNF-α 40 ng/ml, 4 hours; for inhibition at 1 µg/mL / inhibition at 10 µg/mL: Homo sapiens, read-out: The rate of inhibitory activity against NF-κB activation (%). In kind it is cell-based, human. How it is done:
Using a transfection reagent (Effectene; QIAGEN), the human hepatoma cell strain HepG2 or the human hysterocarcinoma cell strain HeLa was transfected with the firefly luciferase gene (Luc) contained plasmid (pNF κB-Luc Reporter Plasmid; […]) which contained oligonucleotide having five tandem copies of NF-κB binding sequences ([…]) on a upstream region of Luc, according to the QUAGEN's protocol and it was incuvated for 6-24 hours. After addition of TNF-α (40 ng/ml) with or without the test compound, the cells were incuvated for 4 hours, and intracellular luciferase activity was measured with PicaGene LT (TOYO INK MFG Co., Ltd.) and chemical luminescence measurement device ([…]luor Plus; TECAN). The inhibition ratio was measured as a ratio to the value of the luciferase activity without the test compound.

Where [1] appears, read: Concentration of the agent: 1 μg/mL.
The mark [2] stands for this setting: Concentration of the agent: 10 μg/mL.

In the case of `O=C(Nc1cc(-c2ccccc2)[nH]n1)c1cc(Br)ccc1O` [Compound 36, 5-Bromo-2-hydroxy-N-(5-phenylpyrazol-3-yl)benzamide], under setting [1], the inhibition at 1 µg/mL is 26.6%. Moreover, the inhibition at 10 µg/mL under setting [2] stood at 84.7%.

On to `O=C(Nc1nc(-c2ccccc2)c(-c2ccccc2)o1)c1cc(Br)ccc1O` [Compound 38, 5-Bromo-N-(4,5-diphenyloxazol-2-yl)-2-hydroxybenzamide], for which the inhibition at 1 µg/mL under setting [1] is -10.1%. The inhibition at 10 µg/mL under setting [2] was determined as 81.8%.

`O=C(Nc1nnc(C(F)(F)F)s1)c1ccccc1O` [Compound 40, 2-Hydroxy-N-5-[(trifluoromethyl)-1,3,4-thiadiazol-2-yl]benzamide]: the “The rate of inhibitory activity against NF-κB activation (%)” value (from here on “The rate of inhibitory activity … (%)”) runs as follows: under setting [1], 3.9%; under setting [2], 81.9%.

With `O=C(Nc1nnc(C(F)(F)F)s1)c1cc(Br)ccc1O` [Compound 41], the “The rate of inhibitory activity … (%)” value by setting is: under setting [1], 26.1%; under setting [2], 90.3%.

On to `O=C(Nc1ccnc(Cl)c1)c1cc(Cl)ccc1O` [Compound 42, 5-Chloro-N-(2-chloropyridin-4-yl)-2-hydroxybenzamide], for which the inhibition at 1 µg/mL under setting [1] was 14.3%. In addition, the inhibition at 10 µg/mL under setting [2] turned out to be 92.3%.

Take `COc1cc(Cl)nc(NC(=O)c2cc(Cl)ccc2O)n1` [Compound 43, 5-Chloro-N-(6-chloro-4-methoxypyrimidin-2-yl)-2-hydroxybenzamide]: the inhibition at 1 µg/mL under setting [1] was 25.5%. Also, the inhibition at 10 µg/mL under setting [2] was 78.9%.

Take `CC(=O)Oc1ccc(Cl)cc1C(=O)Nc1cc2ccccc2[nH]1` [Compound 44, 2-Aceoxy-5-chloro-N-(indol-2-yl)benzamide]: the “The rate of inhibitory activity … (%)” value by setting is: under setting [1], 36.7%; under setting [2], 65.8%.

Consider `CCOC(=O)c1c[nH]c2c(NC(=O)c3ccccc3OC(C)=O)cccc12` [Compound 45, 7-[(2-Acetoxybenzoyl)amino]indole-3-carboxylic acid ethyl ester], for which the inhibition at 1 µg/mL under setting [1] is 61.7%. The inhibition at 10 µg/mL under setting [2] is 91.3%.

As for `O=C(Nc1cnc2ccccc2c1)c1cc(Cl)ccc1O` [Compound 46, 5-Chloro-2-hydroxy-N-(quinolin-3-yl)benzamide], the inhibition at 1 µg/mL under setting [1] was -43.7%. In addition, the inhibition at 10 µg/mL under setting [2] came to 85.7%.

Consider `CCn1c2ccccc2c2cc(NC(=O)c3cc(Cl)ccc3O)ccc21` [Compound 47, N-(9-Ethylcarbazol-3-yl)-5-chloro-2-hydroxybenzamide], for which, under setting [1], the inhibition at 1 µg/mL worked out at 91.3%. The inhibition at 10 µg/mL under setting [2] is 99.4%.

Take `O=C(Nc1cc(C(F)(F)F)cc(C(F)(F)F)c1)c1ccccc1O` [Compound 48]: under setting [1], the inhibition at 1 µg/mL was 93.3%. Besides, the inhibition at 10 µg/mL under setting [2] was 95.6%.

As for `O=C(Nc1cc(C(F)(F)F)cc(C(F)(F)F)c1)c1cc(F)ccc1O` [Compound 49], the inhibition at 1 µg/mL under setting [1] amounted to 81.5%. Also, under setting [2], the inhibition at 10 µg/mL was determined as 94.3%.

Turning to `O=C(Nc1cc(C(F)(F)F)cc(C(F)(F)F)c1)c1cc(Cl)ccc1O` [Compound 50], the inhibition at 1 µg/mL under setting [1] is 96.3%. The inhibition at 10 µg/mL under setting [2] came to 99.5%.

In the case of `O=C(Nc1cc(C(F)(F)F)cc(C(F)(F)F)c1)c1cc(Br)ccc1O` [Compound 51], under setting [1], the inhibition at 1 µg/mL turned out to be 94.9%. For the same compound, the inhibition at 10 µg/mL under setting [2] was found to be 98.6%.

`O=C(Nc1cc(C(F)(F)F)cc(C(F)(F)F)c1)c1cc([N+](=O)[O-])ccc1O` [Compound 53]: the inhibition at 1 µg/mL under setting [1] turned out to be 92%. Under setting [2], the inhibition at 10 µg/mL stood at 99.2%.

As to `Cc1ccc(O)c(C(=O)Nc2cc(C(F)(F)F)cc(C(F)(F)F)c2)c1` [Compound 55], the inhibition at 1 µg/mL under setting [1] was determined as 95.8%. For the same compound, the inhibition at 10 µg/mL under setting [2] was found to be 99.4%.

Turning to `CC(O)c1ccc(O)c(C(=O)Nc2cc(C(F)(F)F)cc(C(F)(F)F)c2)c1` (stereo not drawn) [Compound 57], the inhibition at 1 µg/mL under setting [1] was found to be 76.8%. The inhibition at 10 µg/mL under setting [2] was found to be 96%.

As for `O=C(Nc1cc(C(F)(F)F)cc(C(F)(F)F)c1)c1cc(C=Cc2ccccc2)ccc1O` [Compound 63], under setting [1], the inhibition at 1 µg/mL worked out at 95.5%. Besides, the inhibition at 10 µg/mL under setting [2] turned out to be 96.9%.

As for `C#Cc1ccc(O)c(C(=O)Nc2cc(C(F)(F)F)cc(C(F)(F)F)c2)c1` [Compound 64], under setting [1], the inhibition at 1 µg/mL worked out at 53.3%. Moreover, under setting [2], the inhibition at 10 µg/mL amounted to 90.1%.

As for `C[Si](C)(C)C#Cc1ccc(O)c(C(=O)Nc2cc(C(F)(F)F)cc(C(F)(F)F)c2)c1` [Compound 66], the inhibition at 1 µg/mL under setting [1] came to 91.1%. Under setting [2], the inhibition at 10 µg/mL was determined as 94.9%.

As for `O=C(Nc1cc(C(F)(F)F)cc(C(F)(F)F)c1)c1cc(-c2ccccc2)ccc1O` [Compound 67], the inhibition at 1 µg/mL under setting [1] was determined as 91.8%. In addition, under setting [2], the inhibition at 10 µg/mL amounted to 96.8%.

With `O=C(Nc1cc(C(F)(F)F)cc(C(F)(F)F)c1)c1cc(C(F)(F)F)ccc1O` [Compound 69], the inhibition at 1 µg/mL under setting [1] came out at 96.4%. The inhibition at 10 µg/mL under setting [2] stood at 99.6%.

Consider `O=C(Nc1cc(C(F)(F)F)cc(C(F)(F)F)c1)c1cc(C(F)(F)C(F)(F)F)ccc1O` [Compound 70], for which, under setting [1], the inhibition at 1 µg/mL was 93.3%. The inhibition at 10 µg/mL under setting [2] came to 95.4%.

Regarding `O=C(Nc1cc(C(F)(F)F)cc(C(F)(F)F)c1)c1cc(-n2cccc2)ccc1O` [Compound 71], the inhibition at 1 µg/mL under setting [1] came to 93.8%. Moreover, under setting [2], the inhibition at 10 µg/mL worked out at 97.9%.

On to `O=C(Nc1cc(C(F)(F)F)cc(C(F)(F)F)c1)c1cc(-c2cccs2)ccc1O` [Compound 72], for which the inhibition at 1 µg/mL under setting [1] is 79.5%. The inhibition at 10 µg/mL under setting [2] turned out to be 97.8%.

`O=C(Nc1cc(C(F)(F)F)cc(C(F)(F)F)c1)c1cc(-c2ccsc2)ccc1O` [Compound 73]: the inhibition at 1 µg/mL under setting [1] was 81.7%. Further, the inhibition at 10 µg/mL under setting [2] was found to be 92.9%.

Consider `COc1ccc(O)c(C(=O)Nc2cc(C(F)(F)F)cc(C(F)(F)F)c2)c1` [Compound 77], for which the inhibition at 1 µg/mL under setting [1] worked out at 30.7%. Further, the inhibition at 10 µg/mL under setting [2] came out at 97%.

For `O=C(Nc1cc(C(F)(F)F)cc(C(F)(F)F)c1)c1ccc(O)c(C(=O)Nc2cc(C(F)(F)F)cc(C(F)(F)F)c2)c1` [Compound 82], the inhibition at 1 µg/mL under setting [1] is -8.7%. In addition, the inhibition at 10 µg/mL under setting [2] was found to be 94.5%.

Consider `O=C(Nc1ccc(O)c(C(=O)Nc2cc(C(F)(F)F)cc(C(F)(F)F)c2)c1)c1ccccc1` [Compound 90], for which the inhibition at 1 µg/mL under setting [1] was determined as 1%. The inhibition at 10 µg/mL under setting [2] was 63.4%.

On to `O=C(Nc1ccccc1)Nc1ccc(O)c(C(=O)Nc2cc(C(F)(F)F)cc(C(F)(F)F)c2)c1` [Compound 91], for which the inhibition at 1 µg/mL under setting [1] was 20.5%. Moreover, under setting [2], the inhibition at 10 µg/mL came to 88.4%.

Turning to `O=C(Nc1cc(C(F)(F)F)cc(C(F)(F)F)c1)c1cc(NC(=S)Nc2ccccc2)ccc1O` [Compound 92], the inhibition at 1 µg/mL under setting [1] was 51.8%. Besides, the inhibition at 10 µg/mL under setting [2] turned out to be 97.2%.

Regarding `O=C(Nc1cc(C(F)(F)F)cc(C(F)(F)F)c1)c1cc(N=Nc2ccc([N+](=O)[O-])cc2)ccc1O` [Compound 93], under setting [1], the inhibition at 1 µg/mL was found to be 96.2%. Moreover, the inhibition at 10 µg/mL under setting [2] came out at 98.7%.

Turning to `CC(=O)Oc1ccccc1C(=O)Nc1cc(C(F)(F)F)cc(C(F)(F)F)c1` [Compound 95, 2-Acetoxy-[3,5-bis(trifluoromethyl)phenyl]benzamide], the “The rate of inhibitory activity … (%)” value is 90.9% under setting [1] and 97.1% under setting [2].

Turning to `CC(=O)Oc1ccc(Cl)cc1C(=O)Nc1cc(C(F)(F)F)cc(C(F)(F)F)c1` [Compound 96], under setting [1], the inhibition at 1 µg/mL is 96.5%. Besides, the inhibition at 10 µg/mL under setting [2] is 99.2%.

As to `CC(=O)Nc1cc(O)c(C(=O)Nc2cc(C(F)(F)F)cc(C(F)(F)F)c2)cc1Cl` [Compound 97], the inhibition at 1 µg/mL under setting [1] was 69.9%. In addition, under setting [2], the inhibition at 10 µg/mL was 96%.

With `O=C(Nc1cc(C(F)(F)F)cc(C(F)(F)F)c1)c1ccc(Cl)cc1O` [Compound 98], under setting [1], the inhibition at 1 µg/mL amounted to 90.5%. Moreover, the inhibition at 10 µg/mL under setting [2] was found to be 98.2%.

With `O=C(Nc1cc(C(F)(F)F)ccc1C(F)(F)F)c1cc(Br)ccc1O` [Compound 101], the inhibition at 1 µg/mL under setting [1] is 95.7%. For the same compound, the inhibition at 10 µg/mL under setting [2] was 98.3%.

Turning to `O=C(Nc1ccccc1C(F)(F)F)c1cc(Cl)ccc1O` [Compound 104], the inhibition at 1 µg/mL under setting [1] was 76.2%. In addition, the inhibition at 10 µg/mL under setting [2] is 96.9%.

On to `O=C(Nc1cccc(C(F)(F)F)c1)c1cc(Br)ccc1O` [Compound 106], for which the inhibition at 1 µg/mL under setting [1] was found to be 80.7%. In addition, under setting [2], the inhibition at 10 µg/mL is 93.3%.

Consider `O=C(Nc1cccc(C(F)(F)F)c1F)c1cc(Cl)ccc1O` [Compound 107], for which the inhibition at 1 µg/mL under setting [1] was 92.3%. For the same compound, the inhibition at 10 µg/mL under setting [2] amounted to 95%.

For `O=C(Nc1ccc(F)c(C(F)(F)F)c1)c1cc(Cl)ccc1O` [Compound 108], under setting [1], the inhibition at 1 µg/mL amounted to 94.7%. Under setting [2], the inhibition at 10 µg/mL worked out at 97.6%.

Turning to `O=C(Nc1ccc(Cl)c(C(F)(F)F)c1)c1cc(Br)ccc1O` [Compound 109], the inhibition at 1 µg/mL under setting [1] came out at 83%. The inhibition at 10 µg/mL under setting [2] was found to be 88.8%.

For `O=C(Nc1cc(F)cc(C(F)(F)F)c1)c1cc(Cl)ccc1O` [Compound 110], the inhibition at 1 µg/mL under setting [1] came out at 94.7%. Moreover, the inhibition at 10 µg/mL under setting [2] came to 98.9%.

Turning to `O=C(Nc1cc(C(F)(F)F)ccc1F)c1cc(Cl)ccc1O` [Compound 112], the inhibition at 1 µg/mL under setting [1] came out at 93.1%. Also, the inhibition at 10 µg/mL under setting [2] came out at 95.9%.

Turning to `O=C(Nc1cc(C(F)(F)F)ccc1Cl)c1cc(Cl)ccc1O` [Compound 113], the inhibition at 1 µg/mL under setting [1] was 94.8%. Further, under setting [2], the inhibition at 10 µg/mL was 97.1%.
